Patent US20250333424A1, “ANTIVIRAL COMPOUNDS” (Gilead Sciences, Inc., priority 2024, published 2025)

System: monocytic THP1 cells infected with HIV VSV-G pseudotyped GFP-NEF reporter virus
Assay: cells
Type: cell-based
Conditions: Human immunodeficiency virus 1, THP-1, 24 h

| SMILES | EC50 [nM] |
| --- | --- |
| Cc1cc(/C=C/C#N)cc(C)c1Oc1nc(NC23CC(C#N)(C2)C3)nc2c1C(C)N(c1cnn(C3CC3)c1)C2=O (stereo not shown) [Example 224, (E)-3-((4-(4-(2-cyanovinyl)-2,6-dimethylphenoxy)-6-(1-cyclopropyl-1H-pyrazol-4-yl)-5-methyl-7-oxo-6,7-dihydro-5H-pyrrolo[3,4-d]pyrimidin-2-yl)amino)bicyclo[1.1.1]pentane-1-carbonitrile] | 51.1 |
| Cc1cc(/C=C/C#N)cc(C)c1Oc1nc(NC23CC(C#N)(C2)C3)nc2c1C(C)N(c1cnn3c1CCC3)C2=O (stereo not shown) [Example 225, (E)-3-((4-(4-(2-cyanovinyl)-2,6-dimethylphenoxy)-6-(5,6-dihydro-4H-pyrrolo[1,2-b]pyrazol-3-yl)-5-methyl-7-oxo-6,7-dihydro-5H-pyrrolo[3,4-d]pyrimidin-2-yl)amino)bicyclo[1.1.1]pentane-1-carbonitrile] | 51.8 |
| Cc1cc(/C=C/C#N)cc(C)c1Oc1nc(NC23CC(C#N)(C2)C3)nc2c1C(C)N(c1cnn(C(C)C)c1)C2=O (stereo not shown) [Example 226, (E)-3-((4-(4-(2-cyanovinyl)-2,6-dimethylphenoxy)-6-(1-isopropyl-1H-pyrazol-4-yl)-5-methyl-7-oxo-6,7-dihydro-5H-pyrrolo[3,4-d]pyrimidin-2-yl)amino)bicyclo[1.1.1]pentane-1-carbonitrile] | 84.4 |
| Cc1cc(/C=C/C#N)cc(C)c1Oc1nc(NC23CC(C#N)(C2)C3)nc2c1C(C)N(c1cnn(C3CCC3)c1)C2=O (stereo not shown) [Example 227, (E)-3-((4-(4-(2-cyanovinyl)-2,6-dimethylphenoxy)-6-(1-cyclobutyl-1H-pyrazol-4-yl)-5-methyl-7-oxo-6,7-dihydro-5H-pyrrolo[3,4-d]pyrimidin-2-yl)amino)bicyclo[1.1.1]pentane-1-carbonitrile] | 115 |
| Cc1cc(/C=C/C#N)cc(C)c1Oc1nc(NC23CC(C#N)(C2)C3)nc2c1[C@H](C)N(c1cn[nH]c1)C2=O [Example 228, (S,E)-3-((4-(4-(2-cyanovinyl)-2,6-dimethylphenoxy)-5-methyl-7-oxo-6-(1H-pyrazol-4-yl)-6,7-dihydro-5H-pyrrolo[3,4-d]pyrimidin-2-yl)amino)bicyclo[1.1.1]pentane-1-carbonitrile] | 72 |
| Cc1cc(/C=C/C#N)cc(C)c1Oc1nc(NC23CC(C#N)(C2)C3)nc2c1C(O)(C(F)F)NC2=O (stereo not shown) [Example 229, (E)-3-((4-(4-(2-cyanovinyl)-2,6-dimethylphenoxy)-5-(difluoromethyl)-5-hydroxy-7-oxo-6,7-dihydro-5H-pyrrolo[3,4-d]pyrimidin-2-yl)amino)bicyclo[1.1.1]pentane-1-carbonitrile] | 123 |
| Cc1cc(/C=C/C#N)cc(C)c1Oc1nc(NC23CC(C#N)(C2)C3)nc2c1C(C)(C)N(c1cnn(C)c1)C2=O [Example 230, (E)-3-((4-(4-(2-cyanovinyl)-2,6-dimethylphenoxy)-5,5-dimethyl-6-(1-methyl-1H-pyrazol-4-yl)-7-oxo-6,7-dihydro-5H-pyrrolo[3,4-d]pyrimidin-2-yl)amino)bicyclo[1.1.1]pentane-1-carbonitrile] | 116 |
| Cc1cc(/C=C/C#N)cc(C)c1Oc1nc(NC23CC(C#N)(C2)C3)nc2nn(-c3ccn(C)n3)cc12 [Example 231, (E)-3-((4-(4-(2-cyanovinyl)-2,6-dimethylphenoxy)-2-(1-methyl-1H-pyrazol-3-yl)-2H-pyrazolo[3,4-d]pyrimidin-6-yl)amino)bicyclo[1.1.1]pentane-1-carbonitrile] | 31.1 |
| Cc1cc(/C=C/C#N)cc(C)c1Oc1nc(NC23CC(C#N)(C2)C3)nc2nn(-c3cnn(C)c3)cc12 [Example 232, (E)-3-((4-(4-(2-cyanovinyl)-2,6-dimethylphenoxy)-2-(1-methyl-1H-pyrazol-4-yl)-2H-pyrazolo[3,4-d]pyrimidin-6-yl)amino)bicyclo[1.1.1]pentane-1-carbonitrile] | 110 |
| Cc1cc(/C=C/C#N)cc(C)c1Oc1nc(NC23CC(C#N)(C2)C3)nc2nn(C3CCOC3)cc12 [Example 233, (R,E)-3-((4-(4-(2-cyanovinyl)-2,6-dimethylphenoxy)-2-(tetrahydrofuran-3-yl)-2H-pyrazolo[3,4-d]pyrimidin-6-yl)amino)bicyclo[1.1.1]pentane-1-carbonitrile] | 158 |
| Cc1cc(/C=C/C#N)cc(C)c1Oc1nc(NC23CC(C#N)(C2)C3)nc2nn(CC(F)F)cc12 [Example 234, (E)-3-((4-(4-(2-cyanovinyl)-2,6-dimethylphenoxy)-2-(2,2-difluoroethyl)-2H-pyrazolo[3,4-d]pyrimidin-6-yl)amino)bicyclo[1.1.1]pentane-1-carbonitrile] | 332 |
| Cc1cc(/C=C/C#N)cc(C)c1Nc1nc(NC23CC(C#N)(C2)C3)nc2[nH]nc(C)c12 [Example 236, 3-[[4-[4-[(E)-2-cyanovinyl]-2,6-dimethyl-anilino]-3-methyl-11H-pyrazolo[3,4-d]pyrimidin-6-yl]amino]bicyclo[1.1.1]pentane-1-carbonitrile] | 217 |
| Cc1cc(/C=C/C#N)cc(C)c1Nc1nc(NC23CC(C#N)(C2)C3)nc2nn(C)cc12 [Example 237, 3-[[4-[4-[(E)-2-cyanovinyl]-2,6-dimethyl-anilino]-2-methyl-pyrazolo[3,4-d]pyrimidin-6-yl]amino]bicyclo[1.1.1]pentane-1-carbonitrile] | 119 |
| Cc1cc(/C=C/C#N)cc(C)c1Oc1nc(NC23CC(C#N)(C2)C3)nc2c1C(C)(O)N(CC(F)F)C2=O (stereo not shown) [Example 238, (E)-3-((4-(4-(2-cyanovinyl)-2,6-dimethylphenoxy)-6-(2,2-difluoroethyl)-5-hydroxy-5-methyl-7-oxo-6,7-dihydro-5H-pyrrolo[3,4-d]pyrimidin-2-yl)amino)bicyclo[1.1.1]pentane-1-carbonitrile] | 92.4 |
| Cc1cc(/C=C/C#N)cc(C)c1Oc1nc(NC23CC(C#N)(C2)C3)nc2c1[C@@H](C)N(CC(F)F)C2=O [Example 239, (R,E)-3-((4-(4-(2-cyanovinyl)-2,6-dimethylphenoxy)-6-(2,2-difluoroethyl)-5-methyl-7-oxo-6,7-dihydro-5H-pyrrolo[3,4-d]pyrimidin-2-yl)amino)bicyclo[1.1.1]pentane-1-carbonitrile] | 18.5 |
| Cc1cc(/C=C/C#N)cc(C)c1Oc1nc(NC23CC(C#N)(C2)C3)nc2c1[C@H](C)N(CC(F)F)C2=O [Example 240, (S,E)-3-((4-(4-(2-cyanovinyl)-2,6-dimethylphenoxy)-6-(2,2-difluoroethyl)-5-methyl-7-oxo-6,7-dihydro-5H-pyrrolo[3,4-d]pyrimidin-2-yl)amino)bicyclo[1.1.1]pentane-1-carbonitrile] | 35.2 |
| Cc1cc(/C=C/C#N)cc(C)c1Oc1nc(NC23CC(C#N)(C2)C3)nc2c1C1(C)O[C@@H](C)CCN1C2=O (stereo partly drawn) [Example 241, 3-(((6S)-4-(4-((E)-2-cyanovinyl)-2,6-dimethylphenoxy)-4b,6-dimethyl-10-oxo-4b,7,8,10-tetrahydro-6H-pyrimido[5′,4′:3,4]pyrrolo[2,1-b][1,3]oxazin-2-yl)amino)bicyclo[1.1.1]pentane-1-carbonitrile] | 34.8 |
| Cc1cc(/C=C/C#N)cc(C)c1Oc1nc(NC23CC(C#N)(C2)C3)nc2c1C1(C)SCCCN1C2=O (stereo not shown) [Example 246, (E)-3-((4-(4-(2-cyanovinyl)-2,6-dimethylphenoxy)-4b-methyl-10-oxo-4b,7,8,10-tetrahydro-6H-pyrimido[5′,4′:3,4]pyrrolo[2,1-b][1,3]thiazin-2-yl)amino)bicyclo[1.1.1]pentane-1-carbonitrile] | 41.2 |
| Cc1cc(/C=C/C#N)cc(C)c1Oc1nc(NC23CC(C#N)(C2)C3)nc2c1[C@H](C(F)(F)F)NC2=O [Example 247, (R,E)-3-((4-(4-(2-cyanovinyl)-2,6-dimethylphenoxy)-7-oxo-5-(trifluoromethyl)-6,7-dihydro-5H-pyrrolo[3,4-d]pyrimidin-2-yl)amino)bicyclo[1.1.1]pentane-1-carbonitrile] | 40.2 |
| Cc1cc(/C=C/C#N)cc(C)c1Oc1nc(NC23CC(C#N)(C2)C3)nc2ccn(C)c12 [Example 250, 3-[[4-[4-[(E)-2-cyanovinyl]-2,6-dimethyl-phenoxy]-5-methyl-pyrrolo[3,2-d]pyrimidin-2-yl]amino]bicyclo[1.1.1]pentane-1-carbonitrile] | 64 |
| Cc1cc(/C=C/C#N)cc(C)c1Oc1nc(NC23CC(C#N)(C2)C3)nc2c1C1(C)OCC(C(F)(F)F)CN1C2=O (stereo not shown) [Example 253, (E)-3-((4-(4-(2-cyanovinyl)-2,6-dimethylphenoxy)-4b-methyl-10-oxo-7-(trifluoromethyl)-4b,7,8,10-tetrahydro-6H-pyrimido[5′,4′:3,4]pyrrolo[2,1-b][1,3]oxazin-2-yl)amino)bicyclo[1.1.1]pentane-1-carbonitrile] | 253 |
| Cc1cc(/C=C/C#N)cc(C)c1Oc1nc(NC23CC(C#N)(C2)C3)nc2c1[C@@H](C(F)(F)F)NC2=O [Example 254, (S,E)-3-((4-(4-(2-cyanovinyl)-2,6-dimethylphenoxy)-7-oxo-5-(trifluoromethyl)-6,7-dihydro-5H-pyrrolo[3,4-d]pyrimidin-2-yl)amino)bicyclo[1.1.1]pentane-1-carbonitrile] | 71.4 |
| COC(F)(F)C1NC(=O)c2nc(NC34CC(C#N)(C3)C4)nc(Oc3c(C)cc(/C=C/C#N)cc3C)c21 (stereo not shown) [Example 255, (E)-3-((4-2-((2-cyanovinyl)-2,6-dimethylphenoxy)-5-(difluoro(methoxy)methyl)-7-oxo-6,7-dihydro-5H-pyrrolo[3,4-d]pyrimidin-2-yl)amino)bicyclo[1.1.1]pentane-1-carbonitrile] | 52.5 |
| Cc1cc(/C=C/C#N)cc(C)c1Oc1nc(NC23CC(C#N)(C2)C3)nc2nn3c(c12)CCCC3 [Example 256, (E)-3-((4-(4-(2-cyanovinyl)-2,6-dimethylphenoxy)-5,6,7,8-tetrahydropyrido[1′,2′:1,5]pyrazolo[3,4-d]pyrimidin-2-yl)amino)bicyclo[1.1.1]pentane-1-carbonitrile] | 36.1 |
| Cc1cc(/C=C/C#N)cc(C)c1Oc1nc(NC23CC(C#N)(C2)C3)nc2nn3c(c12)CCC3 [Example 257, (E)-3-((4-(4-(2-cyanovinyl)-2,6-dimethylphenoxy)-6,7-dihydro-5H-pyrrolo[1′,2′:1,5]pyrazolo[3,4-d]pyrimidin-2-yl)amino)bicyclo[1.1.1]pentane-1-carbonitrile] | 22.8 |
